Patent US10166237B2, “Compounds and methods for inducing chondrogenesis” (The Scripps Research Institute, priority 2011, dated 2019)

Tested on: human mesenchymal stem cells (hMSCs)
Assay: chondrogenic nodule formation by hMSCs (high throughput screen)
Format: cell-based
Conditions: not given
Method: The primary screening assay was based upon the development of chondrogenic nodules. Chondrocytes can grow in monolayer in vitro, but to more closely mimic their native environment in the joint, the cells are routinely cultured in non-adherent conditions such as in pellet cultures or alginate bead suspensions.
In the actual screen of a library of 22,000 structurally diverse heterocycles, 10^4 primary hMSCs were plated in 384 well plates in serum free DMEM. The cells were treated with 5 μM of each compound and incubated for 4 days. […] To facilitate high throughput imaged-based detection, the chondrogenic nodules were stained with […]. The Nile Red stained nodules were quantified on an Acumen eX3 (high content imaging device) by excitation with a 488 laser for rapid detection of the nodules.
Primary hMSCs grown in a 96 well Greiner plates (50,000/well) were incubated for 4 days in the presence of the 5 uM of each DMSO or 100 nM of PRO1. On day 4, the cells were fixed with 4% formalin for 10 minutes, washed and stained with 1 μg/ml of Rhodamine B for 2 hours at room temperature.

| Compound | Activity (chondrogenic nodules formed in % of cells) |
| --- | --- |
| NC(=O)NCc1ccc(NC(=O)c2ccccc2C(=O)O)cc1 [PM10] | ** (chondrogenic nodules formed in at least 25% but less than 50% of cells) |
| N#Cc1ccc(/C=C/C(=O)c2ccccc2C(=O)O)cc1 [MS15, 2-[(2E)-3-(4-cyanophenyl)prop-2-enoyl]benzoic acid] | *** (chondrogenic nodules formed in at least 50% but less than 75% of cells) |
| CC(=O)c1cccc(NC(=O)c2ccccc2C(=O)O)c1 [Compound N08] | **** (chondrogenic nodules formed in at least 75% of cells) |
| O=C(O)c1ccccc1C(=O)Nc1ccc(-c2ccccn2)cc1 [PM05] | ** (chondrogenic nodules formed in at least 25% but less than 50% of cells) |
| O=C(O)c1ccccc1C(=O)Nc1ncco1 [Compound N35] | ** (chondrogenic nodules formed in at least 25% but less than 50% of cells) |
| O=C(O)c1ccccc1C(=O)Nc1nc(-c2ccccc2)cs1 [Compound N39] | ** (chondrogenic nodules formed in at least 25% but less than 50% of cells) |
| N#Cc1ccc(NC(=O)c2ccncc2C(=O)O)cc1 [Compound B19] | *** (chondrogenic nodules formed in at least 50% but less than 75% of cells) |
| N#Cc1ccc2nc(-c3ccccc3C(=O)O)sc2c1 [Compound R06-1] | ** (chondrogenic nodules formed in at least 25% but less than 50% of cells) |
| O=C(O)c1ccccc1C(=O)Nc1ccc(CCO)cc1 [Compound N26] | *** (chondrogenic nodules formed in at least 50% but less than 75% of cells) |
| N#Cc1ccc(NC(=O)c2ccccc2C#N)cc1 [Compound A01] | ** (chondrogenic nodules formed in at least 25% but less than 50% of cells) |
| O=C(O)c1ccc2c(c1)C(=O)N(Cc1ccccc1C(=O)O)C2=O [MS39] | *** (chondrogenic nodules formed in at least 50% but less than 75% of cells) |
| O=C(O)c1ccccc1C(=O)Nc1ccc(COc2ccccc2)cc1 [PM02] | ** (chondrogenic nodules formed in at least 25% but less than 50% of cells) |
| NC(=O)c1cccc(NC(=O)c2ccccc2C(=O)O)c1 [Compound N11] | ** (chondrogenic nodules formed in at least 25% but less than 50% of cells) |
| COC(=O)NCc1ccc(NC(=O)c2ccccc2C(=O)O)cc1 [PM11] | ** (chondrogenic nodules formed in at least 25% but less than 50% of cells) |
| NC(=O)c1ccccc1NC(=O)c1ccccc1C(=O)O [Compound N10] | ** (chondrogenic nodules formed in at least 25% but less than 50% of cells) |
| O=C(O)c1ccc(C(=O)CC2OC(=O)c3ccccc32)cc1 (centres unmarked) [MS18-1] | ** (chondrogenic nodules formed in at least 25% but less than 50% of cells) |
| O=C(O)c1ccccc1C(=O)Nc1ncccn1 [Compound N50] | ** (chondrogenic nodules formed in at least 25% but less than 50% of cells) |
| N#Cc1ccccc1CNC(=O)c1ccccc1C(=O)O [MS04] | ** (chondrogenic nodules formed in at least 25% but less than 50% of cells) |
| N#Cc1ccc(NC(=O)c2ccccc2CC(=O)O)cc1 [Compound A06] | *** (chondrogenic nodules formed in at least 50% but less than 75% of cells) |
| CC(=O)c1ccccc1C(=O)Nc1ccc(C#N)cc1 [Compound A09] | ** (chondrogenic nodules formed in at least 25% but less than 50% of cells) |

| Compound | Activity (chondrogenic nodules formed in % of cells) |
| --- | --- |
| N#Cc1ccc(C(=O)NCc2ccccc2C(=O)O)cc1 [MS11] | ** (chondrogenic nodules formed in at least 25% but less than 50% of cells) |
| N#Cc1ccc(NC(=O)c2ccccc2-c2ccccc2C(=O)O)cc1 [Compound B32] | ** (chondrogenic nodules formed in at least 25% but less than 50% of cells) |
| O=C(O)c1ccccc1C(=O)Nc1ccncc1 [Compound N01] | *** (chondrogenic nodules formed in at least 50% but less than 75% of cells) |
| N#Cc1ccc(-c2c[nH]c3c(C(=O)O)cccc23)cc1 [MS21] | *** (chondrogenic nodules formed in at least 50% but less than 75% of cells) |
| O=C(O)c1ccc(/C=C/C(=O)c2ccccc2C(=O)O)cc1 [MS16] | ** (chondrogenic nodules formed in at least 25% but less than 50% of cells) |
| N#Cc1ccc(NC(=O)c2ccccc2S(=O)(=O)O)cc1 [Compound A22] | ** (chondrogenic nodules formed in at least 25% but less than 50% of cells) |
| CNCc1cccc(NC(=O)c2ccccc2C(=O)O)c1 [Compound N24] | *** (chondrogenic nodules formed in at least 50% but less than 75% of cells) |
| N#Cc1ccc(S(=O)(=O)Nc2ccccc2C(=O)O)cc1 [Compound R07] | ** (chondrogenic nodules formed in at least 25% but less than 50% of cells) |
| CS(=O)(=O)Nc1ccccc1C(=O)Nc1ccc(C#N)cc1 [Compound A13] | ** (chondrogenic nodules formed in at least 25% but less than 50% of cells) |
| O=C(Cc1ccc(C(=O)O)cc1)Nc1ccccc1C(=O)O [MS14] | ** (chondrogenic nodules formed in at least 25% but less than 50% of cells) |
| O=C(O)c1ccccc1C(=O)Nc1cnccn1 [Compound N52] | ** (chondrogenic nodules formed in at least 25% but less than 50% of cells) |
| N#Cc1ccc(C(=O)CC2OC(=O)c3ccccc32)cc1 (centres unmarked) [MS17-1] | *** (chondrogenic nodules formed in at least 50% but less than 75% of cells) |
| O=C(O)c1ccccc1C(=O)NCC1CCC(C(=O)O)CC1 (centres unmarked) [Compound N33] | ** (chondrogenic nodules formed in at least 25% but less than 50% of cells) |
| O=C(O)c1ccccc1C(=O)Nc1ncc[nH]1 [Compound N34] | ** (chondrogenic nodules formed in at least 25% but less than 50% of cells) |
| CC(=O)c1ccc(NC(=O)c2ccccc2C(=O)O)cc1 [Compound N09] | ** (chondrogenic nodules formed in at least 25% but less than 50% of cells) |
| O=C(O)c1cccc(CNC(=O)c2ccccc2C(=O)O)c1 [MS02] | ** (chondrogenic nodules formed in at least 25% but less than 50% of cells) |
| N#Cc1ccc(NC(=O)c2ccc(C(=O)O)cc2C(=O)O)cc1 [Compound B10] | ** (chondrogenic nodules formed in at least 25% but less than 50% of cells) |
| O=C(O)c1ccccc1C(=O)Nc1ccc(P(=O)(O)O)cc1 [PA08] | ** (chondrogenic nodules formed in at least 25% but less than 50% of cells) |
| O=C(O)c1ccccc1C(=O)NC1CCC(C(=O)O)CC1 (centres unmarked) [Compound N31] | ** (chondrogenic nodules formed in at least 25% but less than 50% of cells) |

Same assay, conditions: Homo sapiens, Mesenchymal stem cells; first value of the cell (before the slash); read-out: CHONDROGENIC μM EC50

| EC50 [µM] | Compound |
| --- | --- |
| > 10 | O=C(O)c1ccccc1C(=O)Nc1nnc(-c2ccccc2)s1 [LK57, 2-((5-phenyl-1,3,4-thiadiazol-2-yl)carbamoyl)benzoic acid] |
| > 10 | N#Cc1ccccc1NC(=O)c1ccccc1C(=O)O [LK13b] |
